A short description of the first data set: logP by HPLC on reversed-phase columns (C 18), EEC Directive 79/831 Annex V.A8. It is filed as physicochemical. Conditions: method marker [a].
Consider `CC(=O)c1cccc(Nc2ncc(Cl)c(NC3CCCCC3)n2)c1` [Example 262], for which the logP is 2.53[a].

The same data set, now with this note: method marker [a]; footnote not given.
Turning to `COCCNc1nc(Nc2cc(OC)c(OC)c(OC)c2)ncc1Cl` [Example 1], the logP was 1.45[a];.
The same measure, in the same setting: the figure for `COCC(C)Nc1nc(Nc2cccc(C(C)=O)c2)ncc1Cl` (stereo not drawn) [Example 15] is 1.72[a]; for `CN(C)c1nc(Nc2ccc(S(C)(=O)=O)cc2)ncc1Cl` [Example 28] it is 1.98[a]; for `COC(=O)c1ccc(Nc2ncc(Cl)c(N(C)C)n2)cc1` [Example 39] it is 2.47[a];.
For `COc1cc(Nc2ncc(Cl)c(NCCO)n2)cc(OC)c1OC.Cl` [Example 55], the logP was 1.09[a].
Consider `CCC(C)N(C)c1nc(Nc2cccc(S(=O)(=O)N(C)C)c2)ncc1Cl` (stereo not drawn) [Example 52], for which the logP is 3.33[a].
On to `CC(=O)c1cccc(Nc2ncc(Cl)c(N(C)C(C)C)n2)c1.Cl` [Example 45], for which the logP is 2.5[a].
Still for that read-out and setting: the figure for `CNc1nc(Nc2ccc(S(=O)(=O)N(C)C)cc2)ncc1Cl` [Example 26] is 1.61[a]; for `CCC(CO)Nc1nc(Nc2cc(OC)cc(OC)c2)ncc1Cl` (stereo not drawn) [Example 19] it is 1.64[a]; for `COCCNc1nc(Nc2ccc(S(=O)(=O)N(C)C)cc2)ncc1Cl` [Example 6] it is 1.9[a];.

The data set is the same for the next values; noted with them: method marker [b] (compound 257: pH2.7).
Consider `CC(C)Nc1nc(Nc2cccc(CS(=O)(=O)NCc3ccccc3)c2)ncc1Cl` [Example 251], for which the logP is 2.18[b].
On the same count and under the same terms, next, `C=CCN(C)c1nc(Nc2ccccc2)ncc1Cl` [Example 271]: 2.66[b]; `CCCNc1nc(Nc2cccc(SC)c2)ncc1Cl` [Example 284]: 2.3[b].
As to `CSc1cccc(Nc2ncc(Cl)c(NC3CCCC3)n2)c1` [Example 256], the logP was 2.93[b].
Consider `CCCC(C)Nc1nc(Nc2ccccc2)ncc1Cl` (stereo not drawn) [Example 274], for which the logP was 2.41[b].
Still for that read-out and setting: the figure for `CC(C)Nc1nc(Nc2cccc(C(F)F)c2)ncc1Cl` [Example 281] is 2.4[b]; for `CCC(=O)N(C)c1cccc(Nc2ncc(Cl)c(NC(C)C)n2)c1` [Example 290] it is 1.76[b].
Still for that read-out and setting: next, `CC(C)CN(C)c1nc(Nc2ccccc2)ncc1Cl` [Example 270]: 3[b].

Staying with this data set, now noted: method marker [b]; footnote not given; compound 68 value matches logP (pH 2.3).
With `COCCNc1nc(Nc2cc(OC)c(OC)c(OC)c2)ncc1Cl` [Example 1], the logP is 1.45[b].
On the same count and under the same terms, the figure for `COCC(C)Nc1nc(Nc2ccc3c(c2)CCN3C(C)=O)ncc1Cl` (stereo not drawn) [Example 107] is 1.48[b]; for `COCC(C)Nc1nc(Nc2ccc3oc(=O)sc3c2)ncc1Cl` (stereo not drawn) [Example 106] it is 2.11[b]; for `COCC(C)Nc1nc(Nc2ccc(C(=O)OC)c(Cl)c2)ncc1Cl` (stereo not drawn) [Example 95] it is 2.95[b].
On the same count and under the same terms, next, `COCC(C)Nc1nc(Nc2cccc(C#N)c2)ncc1Br` (stereo not drawn) [Example 108]: 2.26[b]; `CCC(=O)c1ccc(Nc2ncc(Br)c(NC(C)COC)n2)cc1` (stereo not drawn) [Example 78]: 2.57[b]; `COCC(C)Nc1nc(Nc2ccc(OC(F)(F)F)c(Cl)c2)ncc1Br` (stereo not drawn) [Example 118]: 4.23[b].
Consider `COCC(C)Nc1nc(Nc2ccc(C(=O)OC)c(Cl)c2)ncc1Br` (stereo not drawn) [Example 115], for which the logP is 3.14[b].
Take `COCC(C)Nc1nc(Nc2ccc(OC(F)(F)F)c(Cl)c2)ncc1Cl` (stereo not drawn) [Example 98]: the logP is 3.99[b].
Still for that read-out and setting: the figure for `COCC(C)Nc1nc(Nc2ccc(OC)c(OC)c2)ncc1Cl` (stereo not drawn) [Example 84] is 1.46[b].
Still for that read-out and setting: the figure for `COCCNc1nc(Nc2ccc(S(=O)(=O)N(C)C)cc2)ncc1Cl` [Example 6] is 1.9[b]; for `COCC(C)Nc1nc(Nc2ccc3c(c2)OC(F)(F)C(F)(F)O3)ncc1Br` (stereo not drawn) [Example 75] it is 4.08[b].

The data set is the same for the next values; noted with them: method marker [c].
On to `CC(C)Nc1nc(Nc2cccc(CS(=O)(=O)NCc3ccccc3)c2)ncc1Cl` [Example 251], for which the logP is 3.35[c];.
On the same count and under the same terms, next, `C=CCN(C)c1nc(Nc2ccccc2)ncc1Cl` [Example 271]: 4.03[c];.
Same read-out and setting: the figure for `CCCNc1nc(Nc2cccc(SC)c2)ncc1Cl` [Example 284] is 3.87[c];; for `CCC(=O)N(C)c1cccc(Nc2ncc(Cl)c(NC(C)C)n2)c1` [Example 290] it is 2.89[c];.

Staying with this data set, now noted: method marker [c]; footnote not given.
Take `COC(=O)c1ccc(Nc2ncc(Cl)c(N(C)C)n2)cc1` [Example 39]: the logP is 3.3[c].

The same data set, now with this note: pH 2.3, 0.1% aqueous phosphoric acid and acetonitrile; read-out: logP [a].
Turning to `CCC(CC)Nc1nc(Cl)ncc1Cl` [Example V-23], the chromatographic logP came out at 3.39.

Still in this data set, the particulars now being: pH 2.3, logP [a].
`CCC(C)Nc1nc(Cl)ncc1Cl` (stereo not drawn) [Example V-14, 2,5-dichloro-N-(butan-2-yl)pyrimidine-4-amine] displayed a chromatographic logP of 2.94.

The data set is the same for the next values; noted with them: reversed-phase HPLC column (C 18), pH 2.3, method marker [b]; footnote not given; compound 68 value matches logP (pH 2.3); read-out: logP.
As to `CCCNc1nc(Nc2ccccc2)ncc1C#N` [Example 68, 2-(Phenylamino)-4-(propylamino)pyrimidine-5-carbonitrile], the chromatographic logP turned out to be 2.68.

Staying with this data set, now noted: reversed-phase HPLC column (C 18), pH 2.3, pH 2.3, 0.1% aqueous phosphoric acid and acetonitrile; read-out: logP [a].
For `CC(C)CCNc1nc(Cl)ncc1Cl` [Example V-22, 2,5-dichloro-N-(3-methylbutyl)pyrimidine-4-amine], the chromatographic logP stood at 3.45.
The same measure, in the same setting: next, `N#Cc1cnc(Nc2ccccc2)nc1Cl` [VIII-3, 4-Chloro-2-(phenylamino)pyrimidine-5-carbonitrile]: 2.66; `CCC(C)N(C)c1nc(Cl)ncc1Cl` (stereo not drawn) [Example V-15, N-(butan-2-yl)-2,5-dichloro-N-methylpyrimidine-4-amine]: 3.62.
Still for that read-out and setting: next, `CCCCNc1nc(Cl)ncc1Cl` [Example V-16, N-(butan-1-yl)-2,5-dichloropyrimidine-4-amine]: 2.91.
On the same count and under the same terms, the figure for `COCCNc1nc(Cl)ncc1Cl` [Example V-3, 2,5-dichloro-N-(2-methoxyethyl)pyrimidine-4-amine] is 1.65; for `CCCCCNc1nc(Cl)ncc1Cl` [Example V-31, 2,5-dichloro-N-(pentyl)pyrimidine-4-amine] it is 3.51; for `CC(C)CNc1nc(Cl)ncc1Cl` [Example V-29, 2,5-dichloro-N-(2-methylpropyl)pyrimidine-4-amine] it is 2.93.
In the case of `CCCNc1nc(Nc2ccccc2)ncc1C#N` [Example 68, 2-(Phenylamino)-4-(propylamino)pyrimidine-5-carbonitrile], the chromatographic logP is 2.68.

The data set is the same for the next values; noted with them: values marked [a]; pH 2.3.
For `CCC(COC)N(C)c1nc(Nc2ccccc2)ncc1Br` (stereo not drawn) [Example 232], the logP was 2.23[a].
Take `CSCC(C)(C)Nc1nc(Nc2cccc(SC)c2)ncc1Cl` [Example 175]: the logP was 3.48[a];.
Regarding `N#CCNc1nc(Nc2ccccc2)ncc1Cl` [Example 220], the logP is 1.62[a];.

The same data set, now with this note: values marked [b]; footnote not given.
For the molecule `COCC(C)Nc1nc(Nc2cccc(NC(=O)C(C)(C)C)c2)ncc1Cl` (stereo not drawn) [Example 147], the logP is 1.9[b].
The same measure, in the same setting: the figure for `COCC(C)Nc1nc(Nc2ccc(C)c(SC)c2)ncc1Cl` (stereo not drawn) [Example 154] is 2.33[b].
Turning to `CC(=O)N1CCc2ccc(Nc3ncc(Cl)c(NC(C)C)n3)cc21` [Example 206], the logP is 1.61[b].
On the same count and under the same terms, the figure for `COc1cccc(Nc2ncc(Cl)c(NC(C)C)n2)c1` [Example 182] is 1.86[b]; for `COCC(C)Nc1nc(Nc2cccc(S(=O)(=O)N3CCCCC3)c2)ncc1Cl` (stereo not drawn) [Example 150] it is 2.77[b]; for `CCN(C(C)=O)c1ccc(Nc2ncc(Cl)c(NC(C)C)n2)cc1` [Example 191] it is 1.66[b].
Turning to `CNC(=O)Oc1cccc(Nc2ncc(Br)c(NC(C)COC)n2)c1` (racemic) [Example 130], the logP was 1.56[b].
Same read-out and setting: next, `COCC(C)Nc1nc(Nc2ccc(NC(=O)C(C)(C)C)cc2)ncc1Cl` (racemic) [Example 146]: 1.78[b]; `CC(C)Nc1nc(Nc2cccc(S(=O)(=O)N3CCCCC3)c2)ncc1Cl` [Example 198]: 2.08[b].
On the same count and under the same terms, the figure for `CC(C)Nc1nc(Nc2ccc(NC(=O)C(C)(C)C)cc2)ncc1Cl` [Example 188] is 1.81[b]; for `COCC(C)Nc1nc(Nc2cccc(C)c2)ncc1Cl` (stereo not drawn) [Example 225] it is 1.98[b]; for `COCC(C)Nc1nc(Nc2ccc(C(=O)CC#N)cc2)ncc1Br` (stereo not drawn) [Example 121] it is 2.23[b].
On the same count and under the same terms, the figure for `CC(C)Nc1nc(Nc2ccc(NC(=O)C(F)(F)F)cc2)ncc1Cl` [Example 193] is 1.93[b]; for `C=C(C)C(=O)Nc1cccc(Nc2ncc(Cl)c(NC(C)C)n2)c1` [Example 196] it is 1.66[b].
Turning to `CNC(=O)Oc1cccc(Nc2ncc(Cl)c(NC(C)COC)n2)c1` (racemic) [Example 144], the logP is 1.48[b].
On the same count and under the same terms, the figure for `CCOC(=O)Nc1cccc(Nc2ncc(Br)c(NC(C)COC)n2)c1` (racemic) [Example 129] is 1.87[b].
Still for that read-out and setting: next, `CC(C)Nc1nc(Nc2cccc(NC(=O)C3(C)CC3)c2)ncc1Cl` [Example 207]: 1.78[b].
`COCC(C)Nc1nc(Nc2ccc(C(=O)Nc3ccccc3)cc2)ncc1Br` (racemic) [Example 126]: the logP was 1.92[b].
Still for that read-out and setting: the figure for `CC(=O)Nc1cccc(Nc2ncc(Cl)c(NC(C)C)n2)c1` [Example 195] is 1.39[b].
Consider `CC(C)Nc1nc(Nc2cccc(OC(F)(F)F)c2)ncc1Cl` [Example 185], for which the logP is 3.26[b].
For `COCC(C)Nc1nc(Nc2ccc(N3C(=O)CN(C)C3=O)cc2)ncc1Cl` (stereo not drawn) [Example 227], the logP was 1.41[b].
Still for that read-out and setting: the figure for `CCN(C)c1nc(Nc2ccccc2)ncc1Cl` [Example 241] is 2.11[b]; for `COCC(C)Nc1nc(Nc2ccc(N(C(C)=O)C3CCCCC3)cc2)ncc1Cl` (stereo not drawn) [Example 161] it is 2.33[b]; for `CC(C)Nc1nc(Nc2ccc(C#N)cc2)ncc1Cl` [Example 184] it is 2.46[b].
Still for that read-out and setting: next, `COCC(C)Nc1nc(Nc2ccc(SC)cc2)ncc1Cl` (stereo not drawn) [Example 149]: 2.06[b].
Consider `COCC(C)Nc1nc(Nc2cccc(NC(=O)C(C)C)c2)ncc1Cl` (stereo not drawn) [Example 156], for which the logP is 1.68[b].
Turning to `CNC(=O)c1ccc(Nc2ncc(Cl)c(NC(C)COC)n2)cc1` (racemic) [Example 135], the logP is 1.38[b].
As to `CCN(C)S(=O)(=O)Cc1cccc(Nc2ncc(Cl)c(NC(C)C)n2)c1` [Example 243], the logP was 1.96[b].
In the case of `CCN(C)c1nc(Nc2cccc(SC)c2)ncc1Cl` [Example 239], the logP is 2.99[b].

Still in this data set, the particulars now being: values marked [c]; footnote not given.
Take `CCN(C)c1nc(Nc2ccccc2)ncc1Cl` [Example 241]: the logP was 3.85[c];.
On the same count and under the same terms, next, `CSCC(C)(C)Nc1nc(Nc2cccc(SC)c2)ncc1Cl` [Example 175]: 4.59[c]; `N#CCNc1nc(Nc2ccccc2)ncc1Cl` [Example 220]: 2.2[c].
Same read-out and setting: the figure for `CCN(C)S(=O)(=O)Cc1cccc(Nc2ncc(Cl)c(NC(C)C)n2)c1` [Example 243] is 3.18[c];; for `CCN(C)c1nc(Nc2cccc(SC)c2)ncc1Cl` [Example 239] it is 4.32[c];.
